According to US20230017045A1, “PYRIDINE AND PYRIMIDINE CARBOXYLATE HERBICIDES AND METHODS OF USE THEREOF” (Dow AgroSciences LLC, priority 2017, published 2023):

test system: test plant species; assay: Post-emergent herbicidal activity test (greenhouse, foliar spray, visual growth reduction); assay type: in vivo; conditions: post-emergence, 336 h, ALOMY: blackgrass (Alopecurus myosuroides), 140 g ai/ha, 14 days after application, read-out: Visual Growth Reduction (%) 14 Days After Application, ALOMY
How it was run: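 Seedlings were raised 7-21 d in a greenhouse under a 15 h photoperiod until the first or second true leaf. Each compound, dissolved in acetone:DMSO 97:3 and diluted into a surfactant-containing spray mixture, was then applied at 187 L/ha. Plants were subirrigated, and growth reduction was scored visually at 14 d.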

Structure (SMILES)	pest or weed control at 140 g/ha [%]
COC(=O)c1cccc(-c2ccc(C(F)(F)F)cc2Cl)n1 [F55, Methyl 6-(2-chloro-4-(trifluoromethyl)phenyl)picolinate]	0 to 29

same assay, conditions: post-emergence, 336 h, AMARE: redroot pigweed (Amaranthus retroflexus), 140 g ai/ha, 14 days after application, read-out: Visual Growth Reduction (%) 14 Days After Application, AMARE

Structure (SMILES)	pest or weed control at 140 g/ha [%]
COC(=O)c1cccc(-c2ccc(C(F)(F)F)cc2Cl)n1 [F55, Methyl 6-(2-chloro-4-(trifluoromethyl)phenyl)picolinate]	95 to 100

same assay, conditions: post-emergence, 336 h, AVEFA: wild oat (Avena fatua), 140 g ai/ha, 14 days after application, read-out: Visual Growth Reduction (%) 14 Days After Application, AVEFA

Structure (SMILES)	pest or weed control at 140 g/ha [%]
COC(=O)c1cccc(-c2ccc(C(F)(F)F)cc2Cl)n1 [F55, Methyl 6-(2-chloro-4-(trifluoromethyl)phenyl)picolinate]	0 to 29

same assay, conditions: post-emergence, 336 h, CHEAL: lambsquarters (Chenopodium album), 140 g ai/ha, 14 days after application, read-out: Visual Growth Reduction (%) 14 Days After Application, CHEAL

Structure (SMILES)	pest or weed control at 140 g/ha [%]
COC(=O)c1cccc(-c2ccc(C(F)(F)F)cc2Cl)n1 [F55, Methyl 6-(2-chloro-4-(trifluoromethyl)phenyl)picolinate]	60 to 74

same assay, conditions: post-emergence, 336 h, CIRAR: canada thistle (Cirsium arvense), 140 g ai/ha, 14 days after application, read-out: Visual Growth Reduction (%) 14 Days After Application, CIRAR

Structure (SMILES)	pest or weed control at 140 g/ha [%]
COC(=O)c1cccc(-c2ccc(C(F)(F)F)cc2Cl)n1 [F55, Methyl 6-(2-chloro-4-(trifluoromethyl)phenyl)picolinate]	0 to 29

same assay, conditions: post-emergence, 336 h, CYPES: yellow nutsedge (Cyperus esculentus), 140 g ai/ha, 14 days after application, read-out: Visual Growth Reduction (%) 14 Days After Application, CYPES

Structure (SMILES)	pest or weed control at 140 g/ha [%]
COC(=O)c1cccc(-c2ccc(C(F)(F)F)cc2Cl)n1 [F55, Methyl 6-(2-chloro-4-(trifluoromethyl)phenyl)picolinate]	0 to 29

same assay, conditions: post-emergence, 336 h, DIGSA: crabgrass (Digitaria sanguinalis), 140 g ai/ha, 14 days after application, read-out: Visual Growth Reduction (%) 14 Days After Application, DIGSA

Structure (SMILES)	pest or weed control at 140 g/ha [%]
COC(=O)c1cccc(-c2ccc(C(F)(F)F)cc2Cl)n1 [F55, Methyl 6-(2-chloro-4-(trifluoromethyl)phenyl)picolinate]	0 to 29

same assay, conditions: post-emergence, 336 h, ECHCG: barnyardgrass (Echinochloa crus-galli), 140 g ai/ha, 14 days after application, read-out: Visual Growth Reduction (%) 14 Days After Application, ECHCG

Structure (SMILES)	pest or weed control at 140 g/ha [%]
COC(=O)c1nc(-c2ccc(OC)nc2)ccc1Cl [F269, Methyl 5-chloro-6′-methoxy-[2,3′-bipyridine]-6-carboxylate]	0 to 29
COC(=O)c1cccc(-c2ccc(C(F)(F)F)cc2Cl)n1 [F55, Methyl 6-(2-chloro-4-(trifluoromethyl)phenyl)picolinate]	0 to 29

same assay, conditions: post-emergence, 336 h, IPOHE: ivy-leaf morning glory (Ipomoea hederacea), 140 g ai/ha, 14 days after application, read-out: Visual Growth Reduction (%) 14 Days After Application, IPOHE

Structure (SMILES)	pest or weed control at 140 g/ha [%]
COC(=O)c1nc(-c2ccc(OC)nc2)ccc1Cl [F269, Methyl 5-chloro-6′-methoxy-[2,3′-bipyridine]-6-carboxylate]	0 to 29
COC(=O)c1cccc(-c2ccc(C(F)(F)F)cc2Cl)n1 [F55, Methyl 6-(2-chloro-4-(trifluoromethyl)phenyl)picolinate]	30 to 44

same assay, conditions: post-emergence, 336 h, KCHSC: kochia (Bassia scoparia), 140 g ai/ha, 14 days after application, read-out: Visual Growth Reduction (%) 14 Days After Application, KCHSC

Structure (SMILES)	pest or weed control at 140 g/ha [%]
COC(=O)c1nc(-c2ccc(OC)nc2)ccc1Cl [F269, Methyl 5-chloro-6′-methoxy-[2,3′-bipyridine]-6-carboxylate]	30 to 44
COC(=O)c1cccc(-c2ccc(C(F)(F)F)cc2Cl)n1 [F55, Methyl 6-(2-chloro-4-(trifluoromethyl)phenyl)picolinate]	0 to 29

same assay, conditions: post-emergence, 336 h, ORYSA: rice (Oryza sativa), 140 g ai/ha, 14 days after application, read-out: Visual Growth Reduction (%) 14 Days After Application, ORYSA

Structure (SMILES)	pest or weed control at 140 g/ha [%]
COC(=O)c1nc(-c2ccc(OC)nc2)ccc1Cl [F269, Methyl 5-chloro-6′-methoxy-[2,3′-bipyridine]-6-carboxylate]	0 to 29
COC(=O)c1cccc(-c2ccc(C(F)(F)F)cc2Cl)n1 [F55, Methyl 6-(2-chloro-4-(trifluoromethyl)phenyl)picolinate]	0 to 29

same assay, conditions: post-emergence, 336 h, SETFA: giant foxtail (Setaria faberi), 140 g ai/ha, 14 days after application, read-out: Visual Growth Reduction (%) 14 Days After Application, SETFA

Structure (SMILES)	pest or weed control at 140 g/ha [%]
COC(=O)c1nc(-c2ccc(OC)nc2)ccc1Cl [F269, Methyl 5-chloro-6′-methoxy-[2,3′-bipyridine]-6-carboxylate]	0 to 29
COC(=O)c1cccc(-c2ccc(C(F)(F)F)cc2Cl)n1 [F55, Methyl 6-(2-chloro-4-(trifluoromethyl)phenyl)picolinate]	0 to 29

same assay, conditions: post-emergence, 336 h, SORVU: grain sorghum (Sorghum vulgare), 140 g ai/ha, 14 days after application, read-out: Visual Growth Reduction (%) 14 Days After Application, SORVU

Structure (SMILES)	pest or weed control at 140 g/ha [%]
COC(=O)c1nc(-c2ccc(OC)nc2)ccc1Cl [F269, Methyl 5-chloro-6′-methoxy-[2,3′-bipyridine]-6-carboxylate]	0 to 29
COC(=O)c1cccc(-c2ccc(C(F)(F)F)cc2Cl)n1 [F55, Methyl 6-(2-chloro-4-(trifluoromethyl)phenyl)picolinate]	0 to 29

same assay, conditions: post-emergence, 336 h, STEME: common chickweed (Stellaria media), 140 g ai/ha, 14 days after application, read-out: Visual Growth Reduction (%) 14 Days After Application, STEME

Structure (SMILES)	pest or weed control at 140 g/ha [%]
COC(=O)c1nc(-c2ccc(OC)nc2)ccc1Cl [F269, Methyl 5-chloro-6′-methoxy-[2,3′-bipyridine]-6-carboxylate]	0 to 29
COC(=O)c1cccc(-c2ccc(C(F)(F)F)cc2Cl)n1 [F55, Methyl 6-(2-chloro-4-(trifluoromethyl)phenyl)picolinate]	0 to 29

same assay, conditions: post-emergence, 336 h, TRZAS: wheat, spring (Triticum aestivum), 140 g ai/ha, 14 days after application, read-out: Visual Growth Reduction (%) 14 Days After Application, TRZAS

Structure (SMILES)	pest or weed control at 140 g/ha [%]
COC(=O)c1nc(-c2ccc(OC)nc2)ccc1Cl [F269, Methyl 5-chloro-6′-methoxy-[2,3′-bipyridine]-6-carboxylate]	0 to 29
COC(=O)c1cccc(-c2ccc(C(F)(F)F)cc2Cl)n1 [F55, Methyl 6-(2-chloro-4-(trifluoromethyl)phenyl)picolinate]	0 to 29

same assay, conditions: post-emergence, 336 h, blackgrass (Alopecurus myosuroides), 14 Days After Application, 140 g ai/ha, read-out: Visual Growth Reduction (%) ALOMY

Structure (SMILES)	pest or weed control at 140 g/ha [%]
COC(=O)c1nc(-c2ccc(OC)nc2)ccc1Cl [F269, Methyl 5-chloro-6′-methoxy-[2,3′-bipyridine]-6-carboxylate]	0 to 29

same assay, conditions: post-emergence, 336 h, canada thistle (Cirsium arvense), 14 Days After Application, 140 g ai/ha, read-out: Visual Growth Reduction (%) CIRAR

Structure (SMILES)	pest or weed control at 140 g/ha [%]
COC(=O)c1nc(-c2ccc(OC)nc2)ccc1Cl [F269, Methyl 5-chloro-6′-methoxy-[2,3′-bipyridine]-6-carboxylate]	30 to 44

same assay, conditions: post-emergence, 336 h, crabgrass (Digitaria sanguinalis), 14 Days After Application, 140 g ai/ha, read-out: Visual Growth Reduction (%) DIGSA

Structure (SMILES)	pest or weed control at 140 g/ha [%]
COC(=O)c1nc(-c2ccc(OC)nc2)ccc1Cl [F269, Methyl 5-chloro-6′-methoxy-[2,3′-bipyridine]-6-carboxylate]	0 to 29

same assay, conditions: post-emergence, 336 h, lambsquarters (Chenopodium album), 14 Days After Application, 140 g ai/ha, read-out: Visual Growth Reduction (%) CHEAL

Structure (SMILES)	pest or weed control at 140 g/ha [%]
COC(=O)c1nc(-c2ccc(OC)nc2)ccc1Cl [F269, Methyl 5-chloro-6′-methoxy-[2,3′-bipyridine]-6-carboxylate]	0 to 29

same assay, conditions: post-emergence, 336 h, redroot pigweed (Amaranthus retroflexus), 14 Days After Application, 140 g ai/ha, read-out: Visual Growth Reduction (%) AMARE

Structure (SMILES)	pest or weed control at 140 g/ha [%]
COC(=O)c1nc(-c2ccc(OC)nc2)ccc1Cl [F269, Methyl 5-chloro-6′-methoxy-[2,3′-bipyridine]-6-carboxylate]	0 to 29

same assay, conditions: post-emergence, 336 h, wild oat (Avena fatua), 14 Days After Application, 140 g ai/ha, read-out: Visual Growth Reduction (%) AVEFA

Structure (SMILES)	pest or weed control at 140 g/ha [%]
COC(=O)c1nc(-c2ccc(OC)nc2)ccc1Cl [F269, Methyl 5-chloro-6′-methoxy-[2,3′-bipyridine]-6-carboxylate]	0 to 29

same assay, conditions: post-emergence, 336 h, yellow nutsedge (Cyperus esculentus), 14 Days After Application, 140 g ai/ha, read-out: Visual Growth Reduction (%) CYPES

Structure (SMILES)	pest or weed control at 140 g/ha [%]
COC(=O)c1nc(-c2ccc(OC)nc2)ccc1Cl [F269, Methyl 5-chloro-6′-methoxy-[2,3′-bipyridine]-6-carboxylate]	0 to 29
